pIC50: −log10 of the molar value.
Test system: Salmonella typhimurium
Assay: Antibacterial activity against salmonella typhimurium infected in gentamicin-treated mouse RAW264.7 macrophages assessed as reduction of bacterial accumulation with macrophage measured after 17.5 hrs of post infection by SAFIRE assay
Assay type: functional, organism-based, Salmonella enterica subsp. enterica serovar Typhimurium
Conditions: Salmonella enterica, RAW264.7, 17.5 h

OC(COc1ccc(C2C3CC4CC(C3)CC2C4)cc1)CN1CCCCC1 (stereo unspecified)
pIC50: 6.92

From ChEMBL document CHEMBL5120756, “Mycobacterial Membranes as Actionable Targets for Lipid-Centric Therapy in Tuberculosis” (J Med Chem, 2022)
